In US20240391942A1 (priority 2021, published 2024) one finds IC50 data, which are given here for one compound.

Common to all, as to test: cells
Common to all, as to format: cell-based

One assay concerns SK-HEP-1. Conditions: Homo sapiens, SK-HEP1, 72 h.
In another assay the test system is U-937. Conditions: Homo sapiens, U-937, 72 h.
Another assay has as its system SK-OV-3. The settings on record: Homo sapiens, SK-OV-3, 72 h.
The next assay relates to A-375. The settings on record: Homo sapiens, A-375, 72 h.
The test system of another assay is A-431. The settings on record: Homo sapiens, A-431, 72 h.
Another assay has as its system A549. The settings on record: Homo sapiens, A549, 72 h.
For the next assay, the system named is NCI-H1299. Conditions: Homo sapiens, NCI-H1299, 72 h.
A further assay concerns HCC827. The settings on record: Homo sapiens, HCC827, 72 h.

One may read the IC50 as the concentration that inhibits the measured activity by half. Low values mean inhibition by little substance, high ones a need for much substance. `CN[C@@H]1C[C@H]2O[C@@](C)([C@@H]1OC)n1c3ccccc3c3c4c(c5c6ccccc6n2c5c31)C(=O)NC4` [Staurosporine]: the IC50 in the assay on SK-HEP-1 came to 16.9 nM; with U-937, 13.9 nM; in the assay with SK-OV-3 it was 28 nM; in the assay with A-375 it was 18 nM; in the assay with A-431, 21.1 nM; in the assay on A549, 13.1 nM. Also, the values for the IC50 with NCI-H1299 and in the assay on HCC827 were 9.2 nM and 16.1 nM, respectively.
